Assay results published in ChEMBL document CHEMBL5550143, “Modulation of proteasome subunit selectivity of syringolins” (Bioorg Med Chem, 2024).
The source made the active and inactive calls. The rule behind the calls is not given here.

The compounds below were run on MM1.S (assay: Cytotoxicity against human MM1.S cells). Conditions: not given.
Type: functional, cell-based

SMILES	IC50
CC(C)[C@H](NC(=O)N[C@H](C(=O)N[C@H]1/C=C/CCNC(=O)/C=C/[C@H](C(C)C)NC1=O)C(C)C)C(=O)O	8500 nM

Each compound was assayed on LNCaP (assay: Cytotoxicity against human LNCaP cells incubated for 72 hrs by CCK8 assay). Conditions: not given.

SMILES	IC50
CCCCCCCCCC(=O)N[C@@H](Cc1ccccc1)C(=O)N[C@H]1CCCCNC(=O)/C=C/[C@H](Cc2ccc(CN)cc2)NC1=O	> 1000 nM
CCCCCCCCCC(=O)N[C@@H](Cc1ccccc1)C(=O)N[C@H]1CCCCNC(=O)/C=C/[C@H](Cc2ccc(C#N)cc2)NC1=O	920 nM
CCCCCCCCCC(=O)N[C@@H](Cc1ccccc1)C(=O)N[C@H]1CCCCNC(=O)/C=C/[C@H](Cc2ccc(N(C)C)cc2)NC1=O	94 nM
CCCCCCCCCC(=O)N[C@@H](Cc1ccccc1)C(=O)N[C@H]1CCCCNC(=O)/C=C/[C@H](Cc2ccc(NC)cc2)NC1=O	103 nM
CCCCCCCCCC(=O)N[C@@H](Cc1ccccc1)C(=O)N[C@H]1CCCCNC(=O)/C=C/[C@H](Cc2ccc(B(O)O)cc2)NC1=O	882 nM
CCCCCCCCCC(=O)N[C@@H](Cc1ccccc1)C(=O)N[C@H]1CCCCNC(=O)/C=C/[C@H](Cc2ccc(O)cc2)NC1=O	575 nM
CCCCCCCCCC(=O)N[C@@H](Cc1ccccc1)C(=O)N[C@H]1CCCCNC(=O)/C=C/[C@H](Cc2ccc(C(N)=O)cc2)NC1=O	> 1000 nM
CCCCCCCCCC(=O)N[C@@H](Cc1ccccc1)C(=O)N[C@H]1CCCCNC(=O)/C=C/[C@H](Cc2ccc(N)cc2)NC1=O	181 nM
CCCCCCCCCC(=O)N[C@@H](Cc1ccccc1)C(=O)N[C@H]1CCCCNC(=O)/C=C/[C@H](CC(=O)O)NC1=O	> 1000 nM
CCCCCCCCCC(=O)N[C@@H](Cc1ccccc1)C(=O)N[C@H]1CCCCNC(=O)/C=C/[C@H](CCC(=O)O)NC1=O	> 1000 nM
CCCCCCCCCC(=O)N[C@@H](Cc1ccccc1)C(=O)N[C@H]1CCCCNC(=O)/C=C/[C@H](Cc2ccc(CN(C)C)cc2)NC1=O	> 1000 nM
CCCCCCCCCC(=O)N[C@@H](Cc1ccccc1)C(=O)N[C@H]1CCCCNC(=O)/C=C/[C@H](C(C)C)NC1=O	91.2 nM
CCCCCCCCCC(=O)N[C@@H](Cc1ccccc1)C(=O)N[C@H]1CCCCNC(=O)/C=C/[C@H](Cc2ccc([N+](=O)[O-])cc2)NC1=O	> 1000 nM
CCCCCCCCCC(=O)N[C@@H](Cc1ccccc1)C(=O)N[C@H]1CCCCNC(=O)/C=C/[C@H](Cc2ccccc2)NC1=O	43.5 nM
CCCCCCCCCC(=O)N[C@@H](Cc1ccccc1)C(=O)N[C@H]1CCCCNC(=O)/C=C/[C@H](Cc2ccc(NC(=N)N)cc2)NC1=O	> 1000 nM
CCCCCCCCCC(=O)N[C@@H](Cc1ccccc1)C(=O)N[C@H]1CCCCNC(=O)/C=C/[C@H](Cc2ccc(OC)cc2)NC1=O	116 nM
CCCCCCCCCC(=O)N[C@@H](Cc1ccccc1)C(=O)N[C@H]1CCCCNC(=O)/C=C/[C@H](Cc2ccc(C(=O)O)cc2)NC1=O	> 1000 nM
CCCCCCCCCC(=O)N[C@@H](Cc1ccccc1)C(=O)N[C@H]1CCCCNC(=O)/C=C/[C@H](Cc2ccc(CC(=N)N)cc2)NC1=O	> 1000 nM

These compounds were tested against T1, Proteasome component C5 (Homo sapiens) (UniProt P20618) (assay: Inhibition of 20S proteasome beta-1 (unknown origin) upto 150 uM). Conditions: not given.
T1 sequence (whole entry): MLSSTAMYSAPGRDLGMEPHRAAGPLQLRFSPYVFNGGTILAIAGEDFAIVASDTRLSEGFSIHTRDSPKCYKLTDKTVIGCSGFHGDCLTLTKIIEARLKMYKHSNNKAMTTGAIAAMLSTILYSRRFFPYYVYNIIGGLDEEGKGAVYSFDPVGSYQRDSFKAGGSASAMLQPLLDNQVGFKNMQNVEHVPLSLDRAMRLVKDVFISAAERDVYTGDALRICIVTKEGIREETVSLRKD

SMILES	inhibition
CC(C)[C@H](NC(=O)N[C@H](C(=O)N[C@H]1CCCCNC(=O)/C=C/[C@H](C(C)C)NC1=O)C(C)C)C(=O)O	inactive

These compounds were tested on DU-145 (assay: Cytotoxicity against human DU-145 cells incubated for 72 hrs by CCK8 assay). Conditions: DU-145, 72 h.

SMILES	IC50
CCCCCCCCCC(=O)N[C@@H](Cc1ccccc1)C(=O)N[C@H]1CCCCNC(=O)/C=C/[C@H](Cc2ccc(CN)cc2)NC1=O	> 1000 nM
CCCCCCCCCC(=O)N[C@@H](Cc1ccccc1)C(=O)N[C@H]1CCCCNC(=O)/C=C/[C@H](Cc2ccc(C#N)cc2)NC1=O	> 1000 nM
CCCCCCCCCC(=O)N[C@@H](Cc1ccccc1)C(=O)N[C@H]1CCCCNC(=O)/C=C/[C@H](Cc2ccc(N(C)C)cc2)NC1=O	101 nM
CCCCCCCCCC(=O)N[C@@H](Cc1ccccc1)C(=O)N[C@H]1CCCCNC(=O)/C=C/[C@H](Cc2ccc(NC)cc2)NC1=O	142 nM
CCCCCCCCCC(=O)N[C@@H](Cc1ccccc1)C(=O)N[C@H]1CCCCNC(=O)/C=C/[C@H](Cc2ccc(B(O)O)cc2)NC1=O	723 nM
CCCCCCCCCC(=O)N[C@@H](Cc1ccccc1)C(=O)N[C@H]1CCCCNC(=O)/C=C/[C@H](Cc2ccc(O)cc2)NC1=O	> 1000 nM
CCCCCCCCCC(=O)N[C@@H](Cc1ccccc1)C(=O)N[C@H]1CCCCNC(=O)/C=C/[C@H](Cc2ccc(C(N)=O)cc2)NC1=O	> 1000 nM
CCCCCCCCCC(=O)N[C@@H](Cc1ccccc1)C(=O)N[C@H]1CCCCNC(=O)/C=C/[C@H](Cc2ccc(N)cc2)NC1=O	292 nM
CCCCCCCCCC(=O)N[C@@H](Cc1ccccc1)C(=O)N[C@H]1CCCCNC(=O)/C=C/[C@H](CC(=O)O)NC1=O	> 1000 nM
CCCCCCCCCC(=O)N[C@@H](Cc1ccccc1)C(=O)N[C@H]1CCCCNC(=O)/C=C/[C@H](CCC(=O)O)NC1=O	> 1000 nM
CCCCCCCCCC(=O)N[C@@H](Cc1ccccc1)C(=O)N[C@H]1CCCCNC(=O)/C=C/[C@H](Cc2ccc(CN(C)C)cc2)NC1=O	> 1000 nM
CCCCCCCCCC(=O)N[C@@H](Cc1ccccc1)C(=O)N[C@H]1CCCCNC(=O)/C=C/[C@H](C(C)C)NC1=O	119 nM
CCCCCCCCCC(=O)N[C@@H](Cc1ccccc1)C(=O)N[C@H]1CCCCNC(=O)/C=C/[C@H](Cc2ccc([N+](=O)[O-])cc2)NC1=O	> 1000 nM
CCCCCCCCCC(=O)N[C@@H](Cc1ccccc1)C(=O)N[C@H]1CCCCNC(=O)/C=C/[C@H](Cc2ccccc2)NC1=O	49.1 nM
CCCCCCCCCC(=O)N[C@@H](Cc1ccccc1)C(=O)N[C@H]1CCCCNC(=O)/C=C/[C@H](Cc2ccc(NC(=N)N)cc2)NC1=O	> 1000 nM
CCCCCCCCCC(=O)N[C@@H](Cc1ccccc1)C(=O)N[C@H]1CCCCNC(=O)/C=C/[C@H](Cc2ccc(OC)cc2)NC1=O	487 nM
CCCCCCCCCC(=O)N[C@@H](Cc1ccccc1)C(=O)N[C@H]1CCCCNC(=O)/C=C/[C@H](Cc2ccc(C(=O)O)cc2)NC1=O	> 1000 nM
CCCCCCCCCC(=O)N[C@@H](Cc1ccccc1)C(=O)N[C@H]1CCCCNC(=O)/C=C/[C@H](Cc2ccc(CC(=N)N)cc2)NC1=O	> 1000 nM

Each compound was assayed against T2, Proteasome Macropain subunit MB1 (Homo sapiens, UniProt P28074) (assay: Inhibition of 20S proteasome beta-5 in human erythrocytes using Suc-LLVY-AMC as substrate by AK-740 assay). Conditions: not given.
T2 sequence (P28074 whole entry): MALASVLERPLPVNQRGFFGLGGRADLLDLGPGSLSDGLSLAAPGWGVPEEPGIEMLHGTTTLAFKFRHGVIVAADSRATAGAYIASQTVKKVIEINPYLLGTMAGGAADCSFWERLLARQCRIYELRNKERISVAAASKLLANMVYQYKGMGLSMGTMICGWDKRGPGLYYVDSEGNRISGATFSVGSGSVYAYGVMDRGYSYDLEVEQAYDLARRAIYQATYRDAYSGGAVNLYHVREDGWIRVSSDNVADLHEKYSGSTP
Parameters: species or system Erythrocyte

SMILES	Ki
CCCCCCCCCC(=O)N[C@@H](Cc1ccccc1)C(=O)N[C@H]1CCCCNC(=O)/C=C/[C@H](CCC(=O)O)NC1=O	> 10000 nM
